The values that follow come from patent US9408863B2, “5′-substituted nucleoside analogs and methods of use thereof for the treatment of viral diseases” (Merck Sharp & Dohme Corp., priority 2011, dated 2016).

The structures appear in SMILES notation.

The subject of one experiment is HCV replicon (1b) in replicon cells. Description: Cell-based HCV replicon assay (replicon RNA level by real time PCR, Taqman). Particulars: Hepatitis C virus, 72 h, read-out: 1b EC50. As to the method:
To measure cell-based anti-HCV activity of selected compounds of the present invention, replicon cells were seeded at 5000 cells/well in 96-well collagen I-coated Nunc plates in the presence of the test compound. Various concentrations of test compound, typically in 10 serial 2-fold dilutions, were added to the assay mixture, with the starting concentration ranging from 250 μM to 1 μM. The final concentration of dimethylsulfoxide was 0.5%, fetal bovine serum was 5%, in the assay media. Cells were harvested on day 3 by the addition of 1× cell lysis buffer (Ambion cat #8721). The replicon RNA level was measured using real time PCR (Taqman assay). The amplicon was located in 5B. The PCR primers were: 5B.2F, ATGGACAGGCGCCCTGA (SEQ ID. NO. 1); 5B.2R, […] (SEQ ID. NO. 2); the probe sequence was FAM-labeled CACGCCATGCGCTGCGG (SEQ ID. NO. 3). GAPDH RNA was used as endogenous control and was amplified in the same reaction as NS5B (multiplex PCR) using primers and VIC-labeled probe recommended by the manufacturer (PE Applied Biosystem). The real-time RT-PCR reactions were run on ABI PRISM 7900HT Sequence Detection System using the following program: 48° C. for 30 minutes, 95° C. for 10 minutes, 40 cycles of 95° C. for 15 sec, 60° C. for 1 minute. The ACT values (CT5B-CTGAPDH) were plotted against the concentration of test compound and fitted to the sigmoid dose-response model using XLfit4 (MDL). EC50 was defined as the concentration of inhibitor necessary to achieve ΔCT=1 over the projected baseline; EC90 the concentration necessary to achieve ΔCT=3.2 over the baseline. Alternatively, to quantitate the absolute amount of replicon RNA, a standard curve was established by including serially diluted T7 transcripts of replicon RNA in the Taqman assay. All Taqman reagents were from PE Applied Biosystems. Such an assay procedure was described in detail in e.g. Malcolm et al., Antimicrobial Agents and Chemotherapy 50: 1013-1020 (2006).
Background: In antiviral work, replicon cells carry a viral genome segment that copies itself.
Turning to `CCCCOC(=O)[C@H](C)NP(=O)(Oc1cccc2ccccc12)O[C@H](C)[C@H]1O[C@@H](n2ccc(=O)[nH]c2=O)[C@](C)(O)[C@@H]1O` (stereo partly shown) [Compound 4], the concentration giving a half-maximal response (EC50) was > 100 µM.

Turning to `CCCCOC(=O)[C@H](C)NP(=O)(Oc1cccc2ccccc12)O[C@H](C)[C@H]1O[C@@H](n2ccc(N)nc2=O)[C@](C)(O)[C@@H]1O` (stereo partly shown) [Compound 2], the EC50 was 10 µM.

For `CCCCOC(=O)[C@H](C)NP(=O)(Oc1cccc2ccccc12)O[C@H](C)[C@H]1O[C@@H](n2cnc3c(=O)[nH]c(N)nc32)[C@](C)(O)[C@@H]1O` (stereo partly shown) [Compound 10], the concentration giving a half-maximal response (EC50) is > 100 µM.

Regarding `CCCCOC(=O)[C@H](C)NP(=O)(Oc1cccc2ccccc12)O[C@@H](C)[C@H]1O[C@@H](n2ccc(N)nc2=O)[C@](C)(O)[C@@H]1O` (stereo partly shown) [Compound 6], the EC50 was > 100 µM.

The same experiment, now with this note: Hepatitis C virus, 72 h; HCV 1b replicon cells, harvested on day 3; EC50 = concentration to achieve ΔCT=1 over projected baseline; read-out: 1b EC50.
Take `C[C@@H](O)[C@H]1O[C@@H](n2ccc(N)nc2=O)[C@](C)(O)[C@@H]1O` [Compound 1]: the EC50 was > 100 µM.

With `CC(O)[C@H]1O[C@@H](n2ccc(N)nc2=O)[C@](C)(F)[C@@H]1O` (stereo partly shown) [Compound 8], the EC50 worked out at 38 µM.

For the compound `C[C@H](O)[C@H]1O[C@@H](n2cnc3c(=O)[nH]c(N)nc32)[C@](C)(O)[C@@H]1O` [Compound 11], the EC50 is > 100 µM.

On to `C[C@@H](O)[C@H]1O[C@@H](n2ccc(=O)[nH]c2=O)[C@](C)(O)[C@@H]1O` [Compound 3], for which the EC50 is > 100 µM.

On to `CC(O)[C@H]1O[C@@H](n2ccc(NC(=O)c3ccccc3)nc2=O)[C@](C)(F)[C@@H]1O` (stereo partly shown) [Compound 7], for which the EC50 is > 100 µM.

For the compound `C[C@@H](O)[C@H]1O[C@@H](n2cnc3c(=O)[nH]c(N)nc32)[C@](C)(O)[C@@H]1O` [Compound 9], the concentration for a half-maximal effect (EC50) was > 100 µM.

`CC(O)[C@H]1O[C@@H](n2cnc3c(OCc4ccccc4)nc(NC(=O)c4ccccc4)nc32)[C@](C)(F)[C@@H]1O` (stereo partly shown) [Compound 12]: the EC50 was 14 µM.

Consider `C[C@H](O)[C@H]1O[C@@H](n2ccc(N)nc2=O)[C@](C)(O)[C@@H]1O` [Compound 5], for which the EC50 was > 100 µM.

For the compound `CC(O)[C@H]1O[C@@H](n2cnc3c(=O)[nH]c(N)nc32)[C@](C)(F)[C@@H]1O` (stereo partly shown) [Compound 13], the concentration for a half-maximal effect (EC50) was 3.5 µM.

Broadly, the EC50 is the concentration that produces a half-maximal response.
